Assays:
[1] = test system: Escherichia coli EC-1: VOGEL, mouse virulent; assay: MIC determination (CLSI), strain EC-1; assay type: cell-based; conditions: strain EC-1; generated in the same manner as in Table 4; unit assumed
Procedure: (§1) The in vitro antibacterial activity of compounds described in the Examples was evaluated by minimum inhibitory concentration (MIC) testing according to Clinical and Laboratory Standards Institute (CLSI, formerly NCCLS) guidelines. See: Clinical and Laboratory Standards Institute. Methods for Dilution Antimicrobial Susceptibility Tests for Bacteria that Grow Aerobically; Approved Standard-Seventh Edition. CLSI document M7-A7 [ISBN 1-56238-587-9]. Clinical and Laboratory Standards Institute, 940 West Valley Road, Suite 1400, Wayne, Pa. 19087-1898 USA, 2006; also Clinical and Laboratory Standards Institute. Performance Standards for Antimicrobial Susceptibility Testing; Eighteenth Informational Supplement. CLSI document M100-S18 [ISBN1-56238-653-0].Clinical and Laboratory Standards Institute.
(§2) The following bacterial strains were used in these MIC determinations:
3) Escherichia coli EC-1: VOGEL, mouse virulent labeled as EC-1 in Tables 4 and 5;

[2] = test system: Pseudomonas aeruginosa UI-18: Wild-type (PA-7); assay: MIC determination (CLSI), strain PA-7; assay type: cell-based; conditions: strain PA-7; generated in the same manner as in Table 4; unit assumed
Procedure: as §1, §2
1) Pseudomonas aeruginosa UI-18: Wild-type, labeled as PA-7 in Tables 4, and 5;

Compound | EC-1 (MIC) [1] | PA-7 (MIC) [2]
CNS(=O)(=O)c1ccc(-c2ccn(CCC(C)(C(=O)NO)S(C)(=O)=O)c(=O)c2)cc1 (stereo not drawn) [Example 102, N-hydroxy-2-methyl-4-[4-{4-[(methylamino)sulfonyl]phenyl}-2-oxopyridin-1(2H)-yl]-2-(methylsulfonyl)butanamide] | > 64 µg/mL | > 64 µg/mL
CCNC(=O)c1cc(F)cc(-c2ccn(CCC(C)(C(=O)NO)S(C)(=O)=O)c(=O)c2)c1 (stereo not drawn) [Example 103, N-ethyl-3-fluoro-5-{1-[4-(hydroxyamino)-3-methyl-3-(methylsulfonyl)-4-oxobutyl]-2-oxo-1,2-dihydropyridin-4-yl}benzamide] | > 64 µg/mL | > 64 µg/mL
Cn1ccnc1-c1ccc(-c2ccn(CCC(C)(C(=O)NO)S(C)(=O)=O)c(=O)c2)cc1 (stereo not drawn) [Example 104, N-hydroxy-2-methyl-4-{4-[4-(1-methyl-1H-imidazol-2-yl)phenyl]-2-oxopyridin-1(2H)-yl}-2-(methylsulfonyl)butanamide] | > 64 µg/mL | > 64 µg/mL
CCOc1ccc(Cl)cc1-c1ccn(CCC(C)(C(=O)NO)S(C)(=O)=O)c(=O)c1 (stereo not drawn) [Example 105, 4-[4-(5-chloro-2-ethoxyphenyl)-2-oxopyridin-1(2H)-yl]-N-hydroxy-2-methyl-2-(methylsulfonyl)butanamide] | > 64 µg/mL | > 64 µg/mL
CN(C)S(=O)(=O)c1ccc(-c2ccn(CCC(C)(C(=O)NO)S(C)(=O)=O)c(=O)c2)cc1 (stereo not drawn) [Example 106, 4-[4-{4-[(dimethylamino)sulfonyl]phenyl}-2-oxopyridin-1(2H)-yl]-N-hydroxy-2-methyl-2-(methylsulfonyl)butanamide] | > 64 µg/mL | 64 µg/mL
CC(CCn1ccc(-c2ccsc2)cc1=O)(C(=O)NO)S(C)(=O)=O (stereo not drawn) [Example 107, N-hydroxy-2-methyl-2-(methylsulfonyl)-4-[2-oxo-4-(3-thienyl)pyridin-1(2H)-yl]butanamide] | 32 µg/mL | 16 µg/mL
Cc1ccc(N)cc1-c1ccn(CCC(C)(C(=O)NO)S(C)(=O)=O)c(=O)c1 (stereo not drawn) [Example 108, 4-[4-(5-amino-2-methylphenyl)-2-oxopyridin-1(2H)-yl]-N-hydroxy-2-methyl-2-(methylsulfonyl)butanamide] | > 64 µg/mL | > 64 µg/mL
CC(CCn1ccc(-c2cncc3ccccc23)cc1=O)(C(=O)NO)S(C)(=O)=O (stereo not drawn) [Example 109, N-hydroxy-4-(4-isoquinolin-4-yl-2-oxopyridin-1(2H)-yl)-2-methyl-2-(methylsulfonyl)butanamide] | > 64 µg/mL | > 64 µg/mL
CC(CCn1ccc(-c2cccc(N)c2)cc1=O)(C(=O)NO)S(C)(=O)=O (stereo not drawn) [Example 110, 4-[4-(3-aminophenyl)-2-oxopyridin-1(2H)-yl]-N-hydroxy-2-methyl-2-(methylsulfonyl)butanamide] | > 64 µg/mL | 64 µg/mL
CC(CCn1ccc(-c2cccc(-n3cccn3)c2)cc1=O)(C(=O)NO)S(C)(=O)=O (stereo not drawn) [Example 111, N-hydroxy-2-methyl-2-(methylsulfonyl)-4-{2-oxo-4-[3-(1H-pyrazol-1-yl)phenyl]pyridin-1(2H)-yl}butanamide] | > 64 µg/mL | > 64 µg/mL
Cc1cc(F)cc(-c2ccn(CCC(C)(C(=O)NO)S(C)(=O)=O)c(=O)c2)c1 (stereo not drawn) [Example 112, 4-[4-(3-fluoro-5-methylphenyl)-2-oxopyridin-1(2H)-yl]-N-hydroxy-2-methyl-2-(methylsulfonyl)butanamide] | 4 µg/mL | 4 µg/mL
Cc1cc(C(N)=O)ccc1-c1ccn(CCC(C)(C(=O)NO)S(C)(=O)=O)c(=O)c1 (stereo not drawn) [Example 113, 4-{1-[4-(hydroxyamino)-3-methyl-3-(methylsulfonyl)-4-oxobutyl]-2-oxo-1,2-dihydropyridin-4-yl}-3-methylbenzamide] | > 64 µg/mL | > 64 µg/mL
CC(CCn1ccc(-c2cccc(Cl)c2)cc1=O)(C(=O)NO)S(C)(=O)=O (stereo not drawn) [Example 114, 4-[4-(3-chlorophenyl)-2-oxopyridin-1(2H)-yl]-N-hydroxy-2-methyl-2-(methylsulfonyl)butanamide] | 2 µg/mL | 4 µg/mL
Cc1ccc(-c2ccn(CCC(C)(C(=O)NO)S(C)(=O)=O)c(=O)c2)cc1N (stereo not drawn) [Example 115, 4-[4-(3-amino-4-methylphenyl)-2-oxopyridin-1(2H)-yl]-N-hydroxy-2-methyl-2-(methylsulfonyl)butanamide] | 64 µg/mL | 16 µg/mL
CN(C)c1ccc(-c2ccn(CCC(C)(C(=O)NO)S(C)(=O)=O)c(=O)c2)cn1 (stereo not drawn) [Example 116, 4-[6-(dimethylamino)-2′-oxo-3,4′-bipyridin-1′(2′H)-yl]-N-hydroxy-2-methyl-2-(methylsulfonyl)butanamide] | 16 µg/mL | 64 µg/mL
CC(CCn1ccc(-c2cc(F)ccc2O)cc1=O)(C(=O)NO)S(C)(=O)=O (stereo not drawn) [Example 117, 4-[4-(5-fluoro-2-hydroxyphenyl)-2-oxopyridin-1(2H)-yl]-N-hydroxy-2-methyl-2-(methylsulfonyl)butanamide] | > 64 µg/mL | > 64 µg/mL
CC(CCn1ccc(-c2ccoc2)cc1=O)(C(=O)NO)S(C)(=O)=O (stereo not drawn) [Example 118, 4-[4-(3-furyl)-2-oxopyridin-1(2H)-yl]-N-hydroxy-2-methyl-2-(methylsulfonyl)butanamide] | > 64 µg/mL | 64 µg/mL
CC(CCn1ccc(-c2ccc(C3CCCCC3)cc2)cc1=O)(C(=O)NO)S(C)(=O)=O (stereo not drawn) [Example 119, 4-[4-(4-cyclohexylphenyl)-2-oxopyridin-1(2H)-yl]-N-hydroxy-2-methyl-2-(methylsulfonyl)butanamide] | 0.5 µg/mL | 16 µg/mL
COc1ccccc1-c1ccn(CCC(C)(C(=O)NO)S(C)(=O)=O)c(=O)c1 (stereo not drawn) [Example 120, N-hydroxy-4-[4-(2-methoxyphenyl)-2-oxopyridin-1(2H)-yl]-2-methyl-2-(methylsulfonyl)butanamide] | 64 µg/mL | 16 µg/mL
CC(CCn1ccc(-c2cc(F)cc(Cl)c2)cc1=O)(C(=O)NO)S(C)(=O)=O (stereo not drawn) [Example 121, 4-[4-(3-chloro-5-fluorophenyl)-2-oxopyridin-1(2H)-yl]-N-hydroxy-2-methyl-2-(methylsulfonyl)butanamide] | 8 µg/mL | 16 µg/mL
Cc1cc(F)ccc1-c1ccn(CCC(C)(C(=O)NO)S(C)(=O)=O)c(=O)c1 (stereo not drawn) [Example 122, 4-[4-(4-fluoro-2-methylphenyl)-2-oxopyridin-1(2H)-yl]-N-hydroxy-2-methyl-2-(methylsulfonyl)butanamide] | 16 µg/mL | 8 µg/mL
COc1ccc(-c2ccn(CCC(C)(C(=O)NO)S(C)(=O)=O)c(=O)c2)c(F)c1F (stereo not drawn) [Example 123, 4-[4-(2,3-difluoro-4-methoxyphenyl)-2-oxopyridin-1(2H)-yl]-N-hydroxy-2-methyl-2-(methylsulfonyl)butanamide] | 2 µg/mL | 2 µg/mL
CC(CCn1ccc(-c2cnc3ccccc3c2)cc1=O)(C(=O)NO)S(C)(=O)=O (stereo not drawn) [Example 124, N-hydroxy-2-methyl-2-(methylsulfonyl)-4-(2-oxo-4-quinolin-3-ylpyridin-1(2H)-yl)butanamide] | 16 µg/mL | 16 µg/mL
CC(CCn1ccc(-c2cnc3ccccc3c2)cc1=O)(C(=O)NO)S(C)(=O)=O (stereo not drawn) [Example 125, N-hydroxy-2-methyl-2-(methylsulfonyl)-4-(2-oxo-4-quinolin-3-ylpyridin-1(2H)-yl)butanamide] | 16 µg/mL | 32 µg/mL
CCN(CC)C(=O)c1ccc(-c2ccn(CCC(C)(C(=O)NO)S(C)(=O)=O)c(=O)c2)cc1 (stereo not drawn) [Example 126, N,N-diethyl-4-{1-[4-(hydroxyamino)-3-methyl-3-(methylsulfonyl)-4-oxobutyl]-2-oxo-1,2-dihydropyridin-4-yl}benzamide] | > 64 µg/mL | > 64 µg/mL
CC(=O)c1cccc(-c2ccn(CCC(C)(C(=O)NO)S(C)(=O)=O)c(=O)c2)c1 (stereo not drawn) [Example 127, 4-[4-(3-acetylphenyl)-2-oxopyridin-1(2H)-yl]-N-hydroxy-2-methyl-2-(methylsulfonyl)butanamide] | 16 µg/mL | 32 µg/mL
CC(CCn1ccc(-c2cc3nccc(Cl)c3s2)cc1=O)(C(=O)NO)S(C)(=O)=O (stereo not drawn) [Example 128, 4-[4-(7-chlorothieno[3,2-b]pyridin-2-yl)-2-oxopyridin-1(2H)-yl]-N-hydroxy-2-methyl-2-(methylsulfonyl)butanamide] | 32 µg/mL | 64 µg/mL
CC(CCn1ccc(-c2ccc(CC#N)cc2)cc1=O)(C(=O)NO)S(C)(=O)=O (stereo not drawn) [Example 129, 4-{4-[4-(cyanomethyl)phenyl]-2-oxopyridin-1(2H)-yl}-N-hydroxy-2-methyl-2-(methylsulfonyl)butanamide] | 2 µg/mL | 32 µg/mL
CC(CCn1ccc(-c2cc(F)c(F)c(F)c2)cc1=O)(C(=O)NO)S(C)(=O)=O (stereo not drawn) [Example 130, N-hydroxy-2-methyl-2-(methylsulfonyl)-4-[2-oxo-4-(3,4,5-trifluorophenyl)pyridin-1(2H)-yl]butanamide] | 16 µg/mL | 8 µg/mL
CC(CCn1ccc(-c2ccccc2OCC(F)(F)F)cc1=O)(C(=O)NO)S(C)(=O)=O (stereo not drawn) [Example 131, N-hydroxy-2-methyl-2-(methylsulfonyl)-4-{2-oxo-4-[2-(2,2,2-trifluoroethoxy)phenyl]pyridin-1(2H)-yl}butanamide] | > 64 µg/mL | > 64 µg/mL

Source: patent publication US8846933B2, “N-link hydroxamic acid derivatives useful as antibacterial agents” (Pfizer Inc., priority 2009, dated 2014)
